Reference: patent US20230141101A1, “PDE4 INHIBITOR COMPOUND AND MEDICAL USE THEREOF” (Suzhou Longbotai Pharmaceuticals Co., Ltd., priority 2020, published 2023)

Tests used:
Format in all cases: biochemical
Details in all cases: 20 nM
PDE4A1A = biological target: T1, PDE4A1A (Homo sapiens, UniProt P27815); experiment: PDE4 inhibitory activity assay (FAM-cAMP enzymatic reaction), PDE4A1A
T1 construct: purchased BPS 60040
Outline: (§1)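 Inhibition rates from a fluorescence read gave IC50 values. Each enzyme (PDE4A1A, PDE4B1, PDE4D2) sat with compound for 15 min at room temperature; FAM-cAMP then started a 30 min room-temperature reaction, ended with stop solution and left 60 min more.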

PDE4B1 = biological target: T2, PDE4B1 (Homo sapiens, UniProt Q07343); experiment: PDE4 inhibitory activity assay (FAM-cAMP enzymatic reaction), PDE4B1
T2 construct: purchased BPS 60041
Outline: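 Each isoform is incubated with test compound for 15 min at room temperature before FAM-cAMP substrate starts a 30-min reaction.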

PDE4D2 = PDE4D2 (Homo sapiens, UniProt Q08499); experiment: PDE4 inhibitory activity assay (FAM-cAMP enzymatic reaction), PDE4D2
Outline: as §1

Sequence of PDE4D2 (Q08499 303-809): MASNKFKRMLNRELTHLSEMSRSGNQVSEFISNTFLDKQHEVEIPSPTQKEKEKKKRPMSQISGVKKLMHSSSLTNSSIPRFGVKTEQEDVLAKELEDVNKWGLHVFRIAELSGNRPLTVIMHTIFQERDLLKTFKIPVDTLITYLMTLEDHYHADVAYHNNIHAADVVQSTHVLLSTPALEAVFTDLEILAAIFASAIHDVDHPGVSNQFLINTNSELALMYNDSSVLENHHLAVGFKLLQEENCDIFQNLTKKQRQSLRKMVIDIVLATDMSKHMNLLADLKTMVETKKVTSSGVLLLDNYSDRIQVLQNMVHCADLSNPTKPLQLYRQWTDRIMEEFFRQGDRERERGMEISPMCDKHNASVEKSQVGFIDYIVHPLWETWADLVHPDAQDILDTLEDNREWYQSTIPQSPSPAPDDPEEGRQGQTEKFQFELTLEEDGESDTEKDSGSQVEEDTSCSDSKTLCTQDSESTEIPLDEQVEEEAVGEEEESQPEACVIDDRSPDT
T2 sequence (Q07343 whole entry): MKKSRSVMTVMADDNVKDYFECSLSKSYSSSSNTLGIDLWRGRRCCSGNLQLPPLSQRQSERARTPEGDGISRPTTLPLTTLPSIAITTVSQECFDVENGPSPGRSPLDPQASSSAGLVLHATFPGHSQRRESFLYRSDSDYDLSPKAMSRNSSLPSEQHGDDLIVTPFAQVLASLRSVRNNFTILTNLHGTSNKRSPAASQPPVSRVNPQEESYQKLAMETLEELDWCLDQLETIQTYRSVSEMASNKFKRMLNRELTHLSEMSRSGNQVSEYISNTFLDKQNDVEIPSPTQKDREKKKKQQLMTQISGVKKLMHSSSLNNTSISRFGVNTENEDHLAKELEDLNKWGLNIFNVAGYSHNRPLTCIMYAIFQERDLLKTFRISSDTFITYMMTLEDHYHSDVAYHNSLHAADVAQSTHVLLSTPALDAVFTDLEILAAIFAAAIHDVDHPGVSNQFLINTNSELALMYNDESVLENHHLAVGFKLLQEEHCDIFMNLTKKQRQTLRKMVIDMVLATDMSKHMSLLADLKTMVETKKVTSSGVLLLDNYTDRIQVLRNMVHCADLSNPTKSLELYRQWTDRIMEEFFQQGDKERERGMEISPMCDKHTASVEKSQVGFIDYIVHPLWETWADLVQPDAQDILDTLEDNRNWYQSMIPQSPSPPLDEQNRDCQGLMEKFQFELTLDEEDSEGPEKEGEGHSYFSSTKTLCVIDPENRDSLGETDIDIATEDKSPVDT
T1 sequence (P27815 1-647 isoform P27815-4): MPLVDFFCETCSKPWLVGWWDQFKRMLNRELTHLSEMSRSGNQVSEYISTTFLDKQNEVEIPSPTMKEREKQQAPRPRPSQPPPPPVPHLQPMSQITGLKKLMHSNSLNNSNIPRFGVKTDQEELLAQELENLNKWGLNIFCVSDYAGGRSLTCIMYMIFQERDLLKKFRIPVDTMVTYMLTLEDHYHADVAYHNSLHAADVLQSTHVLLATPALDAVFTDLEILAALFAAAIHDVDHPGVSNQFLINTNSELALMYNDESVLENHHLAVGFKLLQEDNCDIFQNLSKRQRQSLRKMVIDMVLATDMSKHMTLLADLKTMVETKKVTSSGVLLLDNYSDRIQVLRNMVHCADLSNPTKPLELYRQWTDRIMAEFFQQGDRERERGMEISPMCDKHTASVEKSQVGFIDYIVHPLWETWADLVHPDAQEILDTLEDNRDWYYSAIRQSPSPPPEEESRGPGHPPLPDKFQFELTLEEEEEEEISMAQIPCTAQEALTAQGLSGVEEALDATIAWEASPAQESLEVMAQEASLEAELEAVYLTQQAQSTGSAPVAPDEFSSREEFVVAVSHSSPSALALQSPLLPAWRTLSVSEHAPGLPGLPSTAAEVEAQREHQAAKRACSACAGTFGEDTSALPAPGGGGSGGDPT

PDE4 A1 inhibitory effect at 20 nM (PDE4A1A)	PDE4 B1 inhibitory effect at 20 nM (PDE4B1)	PDE4 D2 inhibitory effect at 20 nM (PDE4D2)	SMILES
+	+	+	CCOc1nc([C@@H](CS(C)(=O)=O)n2c(=O)n(CC)c3c(C)c(-c4ccccc4C)cnc32)ccc1OC [Ex. 50, (S)-3-(1-(6-ethoxy-5-methoxypyridin-2-yl)-2-(methylsulfonyl)ethyl)-1-ethyl-7-methyl-6-(o-methylphenyl)-1H-imidazo[4,5-b]pyridin-2(3H)-one]
+	+	+	CCOc1nc([C@@H](CS(C)(=O)=O)n2c(=O)n(C)c3cc(-c4c(F)cccc4OC)ccc32)ccc1OC [Ex. 191, (S)-5-(6-fluoro-2-methoxyphenyl)-1-(1-(6-ethoxy-5-methoxypyridin-2-yl)-2-(methylsulfonyl)ethyl)-3-methyl-1H-benzo[d]imidazol-2(3H)-one]
−	−	−	CCOc1nc([C@H](CS(C)(=O)=O)n2c(=O)[nH]c3c(C)c(-c4c(F)cccc4F)cnc32)ccc1OC [Ex. 24, (R)-6-(2,6-difluorophenyl)-3-(1-(6-ethoxy-5-methoxypyridin-2-yl)-2-(methylsulfonyl)ethyl)-7-methyl-1H-imidazo[4,5-b]pyridin-2(3H)-one]
+	+	+	CCOc1nc([C@@H](CS(C)(=O)=O)N2C(=O)c3csc(NC(=O)CN4CCCCC4)c3C2=O)ccc1OC [Ex. 230, (S)—N-(5-(1-(6-ethoxy-5-methoxypyridin-2-yl)-2-(methylsulfonyl)ethyl)-4,6-dioxo-5,6-dihydro-4H-thieno[3,4-c]pyrrol-1-yl)-2-(piperidin-1-yl)acetamide]
+	+	+	CCOc1nc([C@@H](CS(C)(=O)=O)n2c(=O)n(CC(F)F)c3c(C)c(-c4ccc(F)cc4)cnc32)ccc1OC(C)C [Ex. 71, (S)-1-(2,2-difluoroethyl)-3-(1-(6-ethoxy-5-isopropoxypyridin-2-yl)-2-(methylsulfonyl)ethyl)-6-(4-fluorophenyl)-7-methyl-1H-imidazo[4,5-b]pyridin-2(3H)-one]
+	+	+	CCOc1nc([C@@H](CS(C)(=O)=O)n2c(=O)[nH]c3cc(-c4ccccc4Cl)ccc32)ccc1OC [Ex. 142, (S)-5-(2-chlorophenyl)-1-(1-(6-ethoxy-5-methoxypyridin-2-yl)-2-(methylsulfonyl)ethyl)-1H-benzo[d]imidazol-2(3H)-one]
+	+	+	CCOc1nc([C@@H](CS(C)(=O)=O)n2c(=O)[nH]c3cc(-c4cccc(OC)c4F)ccc32)ccc1OC [Ex. 183, (S)-5-(2-fluoro-3-methoxyphenyl)-1-(1-(6-ethoxy-5-methoxypyridin-2-yl)-2-(methylsulfonyl)ethyl)-1H-benzo[d]imidazol-2(3H)-one]
+	+	+	CCOc1nc([C@@H](CS(C)(=O)=O)n2c(=O)n(C3CC3)c3cc(-c4ccccc4F)ccc32)ccc1OC [Ex. 208, (S)-3-cyclopropyl-1-(1-(6-ethoxy-5-methoxypyridin-2-yl)-2-(methylsulfonyl)ethyl)-5-(2-fluorophenyl)-1H-benzo[d]imidazol-2(3H)-one]
+	+	+	CCOc1nc([C@@H](CS(C)(=O)=O)n2c(=O)[nH]c3c(C)c(-c4ccccc4C(C)C)cnc32)ccc1OC [Ex. 11, (S)-3-(1-(6-ethoxy-5-methoxypyridin-2-yl)-2-(methylsulfonyl)ethyl)-6-(2-isopropylphenyl)-7-methyl-1H-imidazo[4,5-b]pyridin-2(3H)-one]
